Assay results published in patent publication US20230233533A1, “COMPOSITIONS, METHODS OF TREATING AND PREVENTING FUNGAL INFECTIONS, AND METHODS OF INHIBITING PRP8 INTEIN EXPRESSION” (Health Research, Inc., priority 2020, published 2023).
Values after ≈ are worked out from the molar mass of the structure shown. Values joined by “and” are separate entries in the source; they are usually repeats but may differ in a detail not shown here. Equal entries are not always repeated.

How the values were obtained:
C. neoformans strain H99 = assay: Minimum fungicidal concentration (MFC) determination; assay type: cell-based; conditions: Cryptococcus neoformans
Experimental: […] cells (100 ul of 0.5×10^5/ml) in log phase were added to each well. […] Then, the cultured cells in selected wells were first suspended by gentle pipetting. 50 μl of the cell culture suspension from each well was plated onto the Sabouraud dextrose agar (SDA) plates and further incubated for 48 h. MFC is defined as the minimum concentration where there is no growth after plating to the SDA plates. […] To determine minimum fungicidal concentration (MFC), the cultured cells in selected wells were first suspended by gentle pipetting. Then 50 ul of the cell culture suspension from each well was plated onto the Sabouraud dextrose agar (SDA) plates and further incubated for 48 h. MFC is defined as the minimum fungicidal concentration where there is no growth after plating on the SDA plates.

[1] = In vivo toxicity studies in adult BALB/c mice
Experimental: Mouse 1: Oral, VC—125 ul of formulation without drug is given per mouse by oral gavage
Mouse 3: IP, VC—60 ul of the formulation without the drug is injected intraperitoneally
A total of 5 doses were given (one/day). Weight, posture, movement, activity, paralysis, seizure, and fur nature were monitored in the morning and evening.

Candida albicans = assay: Fungal susceptibility test, broth microdilution MIC; assay type: cell-based; conditions: microdilution assay
Experimental: Fungal susceptibility test—The fungal susceptibility test was carried out with a compound concentration series as described. Li et al., “Cisplatin Protects Mice From Challenge of Cryptococcus neoformans by Targeting the Prp8 Intein,” Emerging Microbes & Infections 8(1):895-908 (2019), which is hereby incorporated by reference in its entirety. The broth microdilution method was used to determine the compound MIC values against C. neoformans. In brief, serial 2-fold dilutions of the 6G-318SS (20 to 0.03 μg/ml) were made in 100 μl RPMI-1640 medium with MOPS in 96-well U-bottom plates. The C. neoformans H99 strain (100 μl of 0.5×10^5/ml) in log phase was added to each well. […] The MIC break-point was defined as no visible fungal growth by naked eye or by determining the 90% growth inhibition using absorbance at 630 nm, compared with no inhibitor control in a 96-well plate.
C. albicans, a fungus without the Prp8 intein, was also used as a control.

C. neoformans (H99) = assay: In vivo preliminary efficacy study, intranasal infection of BALB/c mice; set-up: species or system Cryptococcus neoformans; conditions: 75 mg/kg oral gavage once daily
Experimental: FIG. 7 illustrates efficacy of 6G318S in mouse models. BALB/c mice (5-6 wk old, male and female were dosed orally by either vehicle control (VC) or 6G318S-75 mg/kg once daily for 5 days. On day 5, all mice were euthanized, lungs were collected, weighed and homogenized in RPMI-1640-MOPS media. Serial 10-fold dilution of the homogenate is made and a volume of 100 ul is plated on to Sabouraud Dextrose-agar plates with antibiotics. Colonies were counted on day 3 and normalized to weight of the lung.
Treatment was given for 6 days. On day 6 few mice were euthanized to check the […] in lungs.

in vitro = assay type: cell-based, human; conditions: human, CC50 A549
In short: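 A549 cells (5×10^3 per well) were exposed to compounds at 37 °C for 48 h, and viability was read by MTT assay; N=3.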

[2] = biological target: C1A/H62A/D95A/H169A (AAAA) Prp8 intein mutant; assay: Surface plasmon resonance (SPR), AAAA mutant; assay type: binding, Cryptococcus gattii
Experimental: The Prp8 intein and mutants were immobilized onto a ProteOn™ GLH sensor chip (2,500-7,000 RU) (Bio-Rad). A 3-fold dilution series of compounds was injected as the analytes. A blank surface blocked by ethanolamine was used as the control surface. The experiment was carried out at a flow rate of 100 μl/min using a PBSTD buffer containing 1×PBS, 0.005% surfactant P20, and 5% DMSO. Association (ka) and dissociation (kd) rates, as well as the dissociation constant (KD), were obtained by global fitting of the SPR data from multiple concentrations to a simple 1:1 Langmuir binding model, using the ProteOn Manager software suite (Bio-Rad).

papain = biological target: T1, papain (Carica papaya, UniProt P00784); assay: Papain protease inhibition (Abz FRET substrate); assay type: biochemical; conditions: compound at 400 μM
T1 construct: purchased Sigma-Aldrich
T1 sequence (P00784 134-345): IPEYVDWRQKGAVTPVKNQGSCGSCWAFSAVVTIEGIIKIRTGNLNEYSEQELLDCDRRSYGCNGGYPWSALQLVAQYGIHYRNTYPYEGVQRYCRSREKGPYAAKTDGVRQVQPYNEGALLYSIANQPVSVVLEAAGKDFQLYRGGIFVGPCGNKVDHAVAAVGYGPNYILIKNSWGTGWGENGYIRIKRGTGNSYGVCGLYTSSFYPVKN
Experimental: Trypsin and papain protease inhibition—An Abz FRET substrate (Abz-RRRRSAG-nTyr) developed previously (Li et al., “Existing Drugs as Broad-Spectrum and Potent Inhibitors for Zika Virus by Targeting NS2B-NS3 Interaction,” Cell Research 27(8):1046-1064 (2017), which is hereby incorporated by reference in its entirety) was used as the substrate for inhibition of trypsin and papain proteases. In black and clear-bottom 96-well plates, 1 μg trypsin (Sigma-Aldrich) was incubated with DMF or compounds at 400 μM at 25° C. for 30 min in a 70 μl reaction buffer containing 20 mM Tris, pH 8.0, 100 mM NaCl, 5% Glycerol, and 0.05% CHAPS. For papain, 1 μg Papain (Sigma-Aldrich) was incubated with compounds at 400 μM at 25° C. for 30 min in a 70 μl reaction buffer composed of 1.1 mM EDTA, 0.067 mM β-mercaptoethanol, 5.5 mM cysteine. […]

O=C(Nc1ccc(F)cc1)c1nnsc1S(=O)(=O)c1ccc(Cl)cc1 [6G-318S, 5-[(4-chlorophenyl)sulfonyl]-N-(4-fluorophenyl)-1,2,3-thiadiazole-4-carboxamide]
MFC (C. neoformans strain H99): 1.25 µg/mL (≈ 3.14 µM)
observed condition of mouse ([1]; 50 mg/kg intraperitoneally): died on day 2
dose with no observed toxicity / safe dose, oral ([1]; mouse, in vivo, po, 5 days): 200 mg/kg
MIC (Candida albicans): 5 µg/mL (≈ 12.6 µM)
fungal cells in lungs versus vehicle controls (C. neoformans (H99)): indication of reduction of fungal cells in lungs
CC50 at 48 h (in vitro): 13.9 µg/mL and ~35 µM
KD AAAA [2]: completely lost binding affinity
inhibition of papain protease activity (papain): neither 6G-318S, 6G-319S, nor cisplatin significantly inhibited
